{
  "source": "patent US9744177B2",
  "about": "“Treatment of male androgen deficiency symptoms or diseases with sex steroid precursor combined with SERM” (ENDORECHERCHE, INC., priority 2014, dated 2017)",
  "key": {"[1]": {"conditions": "female, Long-Evans, rat, in vivo, po, 20 mg/kg"}, "[2]": {"test_system": "human breast cancer MCF-7 cells", "test": "Proliferation of MCF-7 cells (DNA content)", "format": "cell-based", "conditions": "Experiment 2", "procedure": "The MCF-7 human breast adenocarcinoma cell line was derived from the pleural effusion of a patient. MCF-7 cells were used between passages 148 and 165 and subcultured weekly.\nCells in their late logarithmic growth phase were harvested with 0.1% pancreatin (Sigma) and resuspended in the appropriate medium containing 50 ng bovine insulin/mL and 5% (v/v) FBS treated twice with dextran-coated charcoal to remove endogenous steroids. Cells were plated in 24-well Falcon plastic culture plates (2 Cm^2/well) at the indicated density and allowed to adhere to the surface of the plates for 72 h. Thereafter, medium was replaced with fresh medium containing the indicated concentrations of compounds diluted from 1000× stock solutions in 99% redistilled ethanol in the presence or absence of E2. Control cells received only the ethanolic vehicle (0.1% EtOH, v/v). Cells were incubated for the specified time intervals with medium changes at 2- or 3-day intervals. Cell number was determined by measurement of DNA content.\nDose-response curves as well IC50 values were calculated using a weighted iterative nonlinear least-squares regression. All results are expressed as means±SEM."}, "[3]": {"test_system": "ovariectomized mice", "test": "Estrogenic activity: uterine and vaginal weight in ovariectomized mice, compounds alone", "format": "in vivo, BALB/c mice", "conditions": "OVX mice, no estrone; 10 μg daily oral", "procedure": "Female BALB/c mice (BALB/cAnNCrlBR) weighing 18-20 g were obtained from Charles-River, Inc. (St-Constant, Quebec, Canada) and housed 5 per cage in a temperature (23±1° C.)- and light (12 h light/day, lights on at 7:15)-controlled environment. The mice were fed rodent chow and tap water ad libitum. The animals were ovariectomized (OVX) under Isoflurane anesthesia via bilateral flank incisions and randomly assigned to groups of 10 animals. Ten mice were kept intact as controls.\nIn the second experiment (Table 4), TSE 424 was administered orally by gavage once daily at doses of 1, 3, 10 or 30 μg/animal for 9 days, starting 2 days after ovariectomy. In both experiments, to evaluate the antiestrogenic activity, treatment with estrone (E1, 0.06 μg, s.c. injection, twice daily) was started 5 days post-ovariectomy and was administered for a 6 day-period. Compounds were dissolved in ethanol (4% final concentration) and administered in 0.4% methylcellulose. Mice in the intact and OVX control groups received the vehicle alone (4% ETOH-0.4% methylcellulose) during the 9-day period. The animals were killed by exsanguination at the abdominal aorta on the 11th morning following ovariectomy. The uteri and vagina were rapidly dissected, weighed, and kept in 10% buffered formalin for further histologic examination."}, "[4]": {"conditions": "patients treated with testosterone; cited from earlier work"}, "[5]": {"conditions": "men with serum testosterone <3.0 ng/mL after coronography; control group 15.4%; cited from earlier work"}},
  "data": [
    {"smiles": "CC1=C(c2ccc(OC(=O)C(C)(C)C)cc2)[C@H](c2ccc(OCCN3CCCCC3)cc2)Oc2cc(OC(=O)C(C)(C)C)ccc21", "note": "[14C-EM-800]", "values": [
      {"measurement": "total drug-derived radioactivity in the brain, detection", "setting": "[1]", "result": "not detected after 12 hr post dose"}
    ]},
    {"smiles": "Oc1ccc2c(c1)CC[C@H](c1ccccc1)[C@@H]2c1ccc(OCCN2CCCC2)cc1", "note": "[lasofoxifene (free base)]", "values": [
      {"measurement": "Stimulation of DNA by tested compounds", "setting": "[2]", "result": "N.S."},
      {"measurement": "stimulation of uterine weight", "setting": "[3]", "result": 93, "unit": "%"},
      {"measurement": "stimulation of vaginal weight", "setting": "[3]", "result": 73, "unit": "%"}
    ]},
    {"smiles": "C[C@]12CC[C@H]3[C@@H](CCC4=CC(=O)CC[C@@]43C)[C@@H]1CC[C@@H]2O", "note": "[testosterone]", "values": [
      {"measurement": "decrease in mortality risk", "setting": "[4]", "result": 39, "unit": "%"},
      {"measurement": "lower incidence of heart disease", "setting": "[4]", "result": 20, "unit": "%"},
      {"measurement": "rate of deaths at 3 years", "setting": "[5]", "result": 18.5, "unit": "%"}
    ]}
  ]
}
